From article PMC3128679 (Bioorganic & medicinal chemistry letters, 2011)
Each block holds one compound with its values, some of them ahead of it.

What was measured:
Assay type in all cases: biochemical
SHP2 [1] = target: T1, SHP2 (Homo sapiens, UniProt Q06124); assay: in vitro SHP2 inhibition assay; conditions: for SHP2 inhibition at 1 mM: 1 mM compound concentration
T1 sequence (Q06124 1-593): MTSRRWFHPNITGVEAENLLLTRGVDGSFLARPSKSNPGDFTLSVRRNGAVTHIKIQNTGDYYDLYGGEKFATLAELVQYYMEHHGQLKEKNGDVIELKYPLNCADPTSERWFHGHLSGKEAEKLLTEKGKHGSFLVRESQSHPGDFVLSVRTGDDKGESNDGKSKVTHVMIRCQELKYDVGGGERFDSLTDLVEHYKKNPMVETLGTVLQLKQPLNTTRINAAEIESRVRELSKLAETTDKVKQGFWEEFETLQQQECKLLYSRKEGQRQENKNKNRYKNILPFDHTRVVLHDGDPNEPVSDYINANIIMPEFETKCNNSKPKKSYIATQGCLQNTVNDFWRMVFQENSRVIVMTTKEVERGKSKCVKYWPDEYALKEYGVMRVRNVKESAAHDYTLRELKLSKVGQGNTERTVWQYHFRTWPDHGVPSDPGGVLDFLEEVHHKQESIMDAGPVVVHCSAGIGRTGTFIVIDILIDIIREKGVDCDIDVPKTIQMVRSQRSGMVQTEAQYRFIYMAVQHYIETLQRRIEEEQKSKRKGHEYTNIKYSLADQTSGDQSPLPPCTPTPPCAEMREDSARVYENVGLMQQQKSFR

PTPα = PTPα (Homo sapiens, UniProt P18433); assay: PTP panel inhibition assay, PTPα; conditions: at 100 µM
Chain of PTPα (P18433 20-802): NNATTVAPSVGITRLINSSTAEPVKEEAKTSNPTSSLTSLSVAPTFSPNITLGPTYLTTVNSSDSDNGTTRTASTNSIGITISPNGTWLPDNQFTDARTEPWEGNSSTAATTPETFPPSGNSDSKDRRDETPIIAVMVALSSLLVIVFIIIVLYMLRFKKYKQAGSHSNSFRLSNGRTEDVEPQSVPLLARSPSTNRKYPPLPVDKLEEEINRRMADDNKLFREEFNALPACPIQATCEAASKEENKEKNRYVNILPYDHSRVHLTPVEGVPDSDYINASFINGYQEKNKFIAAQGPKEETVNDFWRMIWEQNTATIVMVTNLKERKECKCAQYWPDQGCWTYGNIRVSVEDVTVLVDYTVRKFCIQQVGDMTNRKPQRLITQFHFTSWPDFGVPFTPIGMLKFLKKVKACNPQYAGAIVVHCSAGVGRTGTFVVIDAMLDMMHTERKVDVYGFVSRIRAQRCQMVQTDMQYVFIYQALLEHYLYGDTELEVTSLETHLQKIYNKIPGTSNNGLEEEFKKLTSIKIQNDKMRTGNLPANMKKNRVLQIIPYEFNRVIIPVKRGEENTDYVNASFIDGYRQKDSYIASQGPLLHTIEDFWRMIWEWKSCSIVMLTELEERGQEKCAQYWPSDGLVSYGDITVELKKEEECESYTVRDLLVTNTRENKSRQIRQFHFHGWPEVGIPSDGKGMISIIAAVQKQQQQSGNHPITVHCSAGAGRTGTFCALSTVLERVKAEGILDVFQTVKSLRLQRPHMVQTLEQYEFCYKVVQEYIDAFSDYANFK

SHP2 [2] = target: T1, SHP2; assay: steady-state enzyme kinetic analysis of SHP2 inhibition; conditions: C21 at 0, 4, 8 and 12 µM
LYP = target: T2, LYP (Homo sapiens, UniProt Q9Y2R2); assay: PTP panel inhibition assay, LYP; conditions: at 100 µM
T2 sequence (Q9Y2R2 1-807): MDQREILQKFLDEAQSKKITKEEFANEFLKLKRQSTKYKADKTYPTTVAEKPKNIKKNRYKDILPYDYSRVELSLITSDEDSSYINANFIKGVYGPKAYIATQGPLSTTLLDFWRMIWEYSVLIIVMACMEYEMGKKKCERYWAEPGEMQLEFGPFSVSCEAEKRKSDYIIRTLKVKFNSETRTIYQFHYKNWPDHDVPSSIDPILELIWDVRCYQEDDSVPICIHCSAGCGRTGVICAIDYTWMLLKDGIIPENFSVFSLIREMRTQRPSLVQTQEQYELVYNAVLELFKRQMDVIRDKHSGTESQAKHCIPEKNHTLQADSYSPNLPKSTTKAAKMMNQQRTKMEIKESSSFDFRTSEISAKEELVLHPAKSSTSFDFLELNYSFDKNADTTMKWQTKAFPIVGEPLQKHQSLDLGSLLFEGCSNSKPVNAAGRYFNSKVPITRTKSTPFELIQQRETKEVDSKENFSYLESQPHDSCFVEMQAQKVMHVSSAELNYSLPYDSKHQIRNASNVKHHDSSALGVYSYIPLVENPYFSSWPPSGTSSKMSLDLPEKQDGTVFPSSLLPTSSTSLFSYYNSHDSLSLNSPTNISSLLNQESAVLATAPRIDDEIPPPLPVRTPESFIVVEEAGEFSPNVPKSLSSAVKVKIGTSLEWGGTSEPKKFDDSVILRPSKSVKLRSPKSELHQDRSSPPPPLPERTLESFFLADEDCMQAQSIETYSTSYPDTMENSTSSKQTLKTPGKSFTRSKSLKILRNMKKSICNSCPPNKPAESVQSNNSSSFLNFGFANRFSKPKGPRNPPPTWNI

VHR = VHR (Homo sapiens, UniProt P51452); assay: PTP panel inhibition assay, VHR; conditions: at 100 µM
Chain of VHR (P51452 whole entry, species assumed): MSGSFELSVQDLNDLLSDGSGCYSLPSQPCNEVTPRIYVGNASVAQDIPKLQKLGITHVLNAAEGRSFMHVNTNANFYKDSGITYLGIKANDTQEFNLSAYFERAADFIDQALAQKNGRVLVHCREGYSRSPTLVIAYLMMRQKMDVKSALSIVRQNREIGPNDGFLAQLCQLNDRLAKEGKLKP

Cdc14 = assay: PTP panel inhibition assay, Cdc14; conditions: at 100 µM
SHP1 = SHP1 (Homo sapiens, UniProt P29350); assay: SHP1 inhibition assay
Chain of SHP1 (P29350 whole entry): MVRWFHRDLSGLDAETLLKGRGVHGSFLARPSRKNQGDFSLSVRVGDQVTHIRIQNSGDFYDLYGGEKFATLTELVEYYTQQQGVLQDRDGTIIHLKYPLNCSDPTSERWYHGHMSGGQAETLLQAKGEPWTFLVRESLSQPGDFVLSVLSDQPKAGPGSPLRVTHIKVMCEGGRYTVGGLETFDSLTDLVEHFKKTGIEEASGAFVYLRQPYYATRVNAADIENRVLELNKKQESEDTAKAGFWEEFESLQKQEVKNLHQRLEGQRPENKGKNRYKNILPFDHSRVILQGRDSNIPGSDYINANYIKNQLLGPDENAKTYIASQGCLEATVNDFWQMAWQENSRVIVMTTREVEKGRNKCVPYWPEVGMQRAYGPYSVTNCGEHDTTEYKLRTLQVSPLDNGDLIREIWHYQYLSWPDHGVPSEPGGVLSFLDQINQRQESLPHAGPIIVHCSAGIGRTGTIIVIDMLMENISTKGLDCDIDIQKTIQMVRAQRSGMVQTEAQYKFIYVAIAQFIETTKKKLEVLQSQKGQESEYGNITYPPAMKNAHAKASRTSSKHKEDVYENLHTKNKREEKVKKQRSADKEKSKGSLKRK

PTP1B = target: T3, PTP1B (Homo sapiens, UniProt P18031); assay: PTP1B inhibition assay
T3 sequence (P18031 1-435): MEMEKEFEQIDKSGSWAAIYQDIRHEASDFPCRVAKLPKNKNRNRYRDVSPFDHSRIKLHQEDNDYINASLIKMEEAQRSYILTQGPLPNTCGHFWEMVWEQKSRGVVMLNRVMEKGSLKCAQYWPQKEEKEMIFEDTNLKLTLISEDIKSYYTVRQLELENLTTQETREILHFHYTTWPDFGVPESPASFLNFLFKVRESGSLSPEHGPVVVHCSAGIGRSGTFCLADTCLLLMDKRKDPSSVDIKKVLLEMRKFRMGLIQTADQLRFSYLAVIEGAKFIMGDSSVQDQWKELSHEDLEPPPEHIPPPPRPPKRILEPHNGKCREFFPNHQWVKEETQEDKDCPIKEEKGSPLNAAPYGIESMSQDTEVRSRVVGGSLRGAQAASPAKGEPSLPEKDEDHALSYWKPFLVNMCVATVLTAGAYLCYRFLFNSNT

concentration dependence of SHP2 inhibition (SHP2 [1]): concentration-dependent inhibition | inhibition of PTPα (PTPα): almost no inhibition | mode of inhibition against SHP2 (SHP2 [2]): reversible and competitive | inhibition of LYP (LYP): almost no inhibition | inhibition of VHR (VHR): almost no inhibition
Structure (SMILES): Cc1cc(S(=O)(=O)O)c(S(=O)(=O)O)cc1N1N=C(C(=O)O)CC1=O [Compound C21]
inhibition of Cdc14 (Cdc14): almost no inhibition

concentration dependence of SHP2 inhibition (SHP2 [1]): concentration-dependent inhibition | inhibitory activity against SHP2 (in words) (SHP2 [1]): only moderate inhibitory activity | inhibition against SHP1 compared with SHP2 (in words) (SHP1): better inhibition | inhibition against PTP1B compared with SHP2 (in words) (PTP1B): better inhibition
Structure (SMILES): CC(=O)N(c1ccc2oc3c(c2c1)CCCC3)S(=O)(=O)c1ccc(C(=O)O)cc1 [Compound C18]

concentration dependence of SHP2 inhibition (SHP2 [1]): concentration-dependent inhibition | inhibitory activity against SHP2 (in words) (SHP2 [1]): only moderate inhibitory activity | inhibition against SHP1 compared with SHP2 (in words) (SHP1): better inhibition | inhibition against PTP1B compared with SHP2 (in words) (PTP1B): better inhibition
Structure (SMILES): CC(=O)c1c(C)oc2ccc(NS(=O)(=O)c3cccc(C(=O)O)c3)cc12 [Compound C30]

fold decreased affinity for SHP2 (SHP2 [1]; relative to C21-A1): ~ 4 fold
Structure (SMILES): O=C(O)C1=NN(c2ccc(S(=O)(=O)O)cc2)C(=O)C1 [Compound C21-A2]

IC50 (SHP2 [1]): > 1000 µM | SHP2 inhibition at 1 mM (SHP2 [1]): failed to inhibit SHP2
Structure (SMILES): O=C(O)C1=NN(c2ccccc2)C(=O)C1 [Compound C21-A3]

IC50 (SHP2 [1]): > 1000 µM | SHP2 inhibition at 1 mM (SHP2 [1]): failed to inhibit SHP2
Structure (SMILES): CC1=NN(c2ccc(S(=O)(=O)O)cc2C)C(=O)C1 [Compound C21-A4]

fold decreased SHP2 inhibition (SHP2 [1]; relative to C21): ~ 5 fold
Structure (SMILES): Cc1cc(S(=O)(=O)O)ccc1N1N=C(C(=O)O)CC1=O [Compound C21-A1]
